Measured values from paper PMC5485613, “A novel TRPM8 agonist relieves dry eye discomfort” (BMC Ophthalmology, 2017).

Tests used:
[1] = target: T1, human TRPM8 (Homo sapiens, UniProt Q7Z2W7); assay: TRPM8 calcium assay (Fluo-8, FLIPR) in transfected CHO cells; type: cell-based; details: x Menthol
T1 construct: host or cells: CHO cells, stably transfected
Procedure: Compounds were tested on Chinese Hamster Ovary (CHO) cells stably transfected with human TRPM8 cDNAs using a Fluo-8 calcium kit and a Fluorescence Imaging Plate Reader ([…]™) instrument. […] Solutions were prepared by diluting stock solutions in a HEPES-buffered physiological saline (HBPS) solution. Test compound and control formulations were loaded in polypropylene or glass-lined 384-well plates, and placed into the FLIPR instrument (Molecular Devices Corporation, Union City, CA, USA). Each was tested at 8 concentrations with n = 4 replicates per determination. […] For […]™ assay, cells were plated in 384-well black wall, flat clear-bottom microtiter plates (Type: BD Biocoat Poly-D-Lysine Multiwell Cell Culture Plate) at approximately 30,000 cells per well. Cells were incubated at 37 °C overnight to reach a near confluent monolayer appropriate for use in a fluorescence assay. The test procedure was to remove the growth media and to add 40 μL of HBPS containing Fluo-8 for 30 min at 37 °C. 10 μL of test compound, vehicle, or control solutions in HBPS were added to each well and read for 4 min. Concentration-response data were analyzed via the FLIPR Control software that is supplied with the FLIPR System (MDS-AT) and fitted to a Hill equation.

[2] = test system: rats; assay: Shaking activity (wet dog shakes) after intravenous, perioral and topical administration; type: in vivo, rat
Procedure: Male rats weighing 220–260 g were anesthetized with sodium pentobarbital, 55 mg/kg intraperitoneal, and after the loss of the righting reflex, animals were placed on a table and body temperature was recorded. The femoral vein was cannulated with polyethylene-20 tubing connected to a 1 mL syringe. For the intravenous and perioral routes, 0.1 mL of solution was given per 100 g body weight at a dose of 2 mg/kg or 20 mg/kg, respectively. For topical administration, the abdominal skin was shaved and 20 μL of the pure Dapa was applied with a micropipette on a ~ 1 cm diameter circle of skin, enclosed with a ring of cream (Baby cream “NevskayakosmetikaDetskyi” NevskayaKosmetika Inc., Saint-Petersburg 192,029). Animals were observed and shaking frequency counted for 15, 40 min and 1 h after intravenous, perioral, and topical applications, respectively. There were n = 3 to 6 rats per test substance. For the intravenous route, two trials were conducted in the same animal with a 10 to 15 min interval between doses. The shaking frequency shown in the graphs is for the second trial. Shaking behavior are rapid alternating contractions of the supination and pronation muscles about the spinal axis, and can be readily observed in the readily observed in the unanesthetized or anesthetized state and counted (Additional file 2: Movie S1). The pattern of response after intravenous, perioral, and topical delivery provides information on the ability of the molecule to cross membrane barriers. Experiments on rats were ended by euthanasia with intraperitoneal injection of sodium pentobarbital 150 mg/kg.
Supplementary file 12886_2017_495_MOESM2_ESM.mp4: Additional file 2: Movie S1. Shaking response to a 1-diisopropylphosphorylnonane. Video recording 20 to 40 min period after oral dosing with C3 at 50 mg/kg. C3 was dissolved in 5% ethanol-95% R-1,2-propanediol. The total observation period was 120 min. […] (MP4 3699 kb)

[3] = test system: volunteers; assay: C3 eye drop instilled in volunteers, sensation scores; type: in vivo, human
Procedure: Eye drops represent ~90% of formulations used for treatment of anterior eye disorders. […] Subjects were asked to rate discomfort, blurring, and coolness sensations, on a scale of 0 (no effect) to 5 (intense effect) at 5, 10, and 15 min after instillation. […] Cooling sensation scores were significant at 5 min (2.6 vs 0.2), but there were not much cooling at 10 (0.8 vs 0.2) or 15 min (0.2 vs 0.2). It appeared as if eye drops are a relatively inefficient method of C3 delivery because the drop splashes in a confined space and the time for the active ingredient to be retained on target receptors is short. Furthermore, the initial period of discomfort is not desirable. To determine if there were other TRPM8 targets on the orbit, we examined the mouse eye with a selective TRPM8-GFP reporter line.

[4] = test system: patients with dry eye disease; assay: Four times daily application for 2 weeks in patients with dry eye disease (Expt 2); type: in vivo, human
Procedure: Initially, a total of 60 additional patients fulfilling the inclusion criteria were assessed for eligibility, and 54 subjects who decided to participate were randomized into two groups as described above (Additional file 1: Figure S4). Vehicle or C3 were prepared as 1 mL solutions placed into unit applicators called Swabdose™ made by Unicep Corporation, Sandpoint, ID. These applicators are singly encased in a polypropylene container with a 6.35 mm cotton tip attached to a 74.6 mm polystyrene handle. USP purified water (placebo units) or a C3 sample (2 mg/mL in USP purified water) was prepared onsite under clean conditions and packaged with automated equipment. Each subject was given 14 Swabdoses for the 2-week study period. The subjects were instructed to apply the cotton-tipped applicator to the edges of the closed eyelids once every 6 h per day for 14 days. The applicators were pre-weighed and the subjects were told to use to same applicator for each day and to save the applicator in a plastic bag at the end of the day. The applicators were collected, weighed and compared with the weight before application. TBUT, basal tear secretion, and corneal staining assessed by KEP scores were analyzed before and at 1 and 2 weeks thereafter. For TBUT, basal tear secretion, and KEP only the results from the right eye were scored for data analysis.
Three questionnaires were used at each patient visit to analyze the effects of treatment on ocular discomfort. Firstly, DED symptoms were assessed using a visual analogue scale (VAS) score of 1 to 10. Next, symptoms were assessed using the ocular surface disease index (OSDI) questionnaire, consisting of 12 questions graded on a scale from 0 to 4 (0 = “none of the time” and 4 = “all the time”). An overall score was calculated (0–100) by using the following equation: (25 × (sum of answered question scores/number of questions answered)). Participants were also asked to grade five symptoms associated with the CVS. The symptoms of fatigue, burning, dryness, blurred vision, and dullness of vision was ranked on a scale of 0 to 6 (0 = “no symptom”, 6 = “very severe symptom”) and the average aggregate score for the two test groups are reported.

[5] = 2 mg/mL four times a day, versus vehicle
[6] = 2 mg/mL four times a day, week 1 or week 2, n = 20

T1 sequence (Q7Z2W7 whole entry): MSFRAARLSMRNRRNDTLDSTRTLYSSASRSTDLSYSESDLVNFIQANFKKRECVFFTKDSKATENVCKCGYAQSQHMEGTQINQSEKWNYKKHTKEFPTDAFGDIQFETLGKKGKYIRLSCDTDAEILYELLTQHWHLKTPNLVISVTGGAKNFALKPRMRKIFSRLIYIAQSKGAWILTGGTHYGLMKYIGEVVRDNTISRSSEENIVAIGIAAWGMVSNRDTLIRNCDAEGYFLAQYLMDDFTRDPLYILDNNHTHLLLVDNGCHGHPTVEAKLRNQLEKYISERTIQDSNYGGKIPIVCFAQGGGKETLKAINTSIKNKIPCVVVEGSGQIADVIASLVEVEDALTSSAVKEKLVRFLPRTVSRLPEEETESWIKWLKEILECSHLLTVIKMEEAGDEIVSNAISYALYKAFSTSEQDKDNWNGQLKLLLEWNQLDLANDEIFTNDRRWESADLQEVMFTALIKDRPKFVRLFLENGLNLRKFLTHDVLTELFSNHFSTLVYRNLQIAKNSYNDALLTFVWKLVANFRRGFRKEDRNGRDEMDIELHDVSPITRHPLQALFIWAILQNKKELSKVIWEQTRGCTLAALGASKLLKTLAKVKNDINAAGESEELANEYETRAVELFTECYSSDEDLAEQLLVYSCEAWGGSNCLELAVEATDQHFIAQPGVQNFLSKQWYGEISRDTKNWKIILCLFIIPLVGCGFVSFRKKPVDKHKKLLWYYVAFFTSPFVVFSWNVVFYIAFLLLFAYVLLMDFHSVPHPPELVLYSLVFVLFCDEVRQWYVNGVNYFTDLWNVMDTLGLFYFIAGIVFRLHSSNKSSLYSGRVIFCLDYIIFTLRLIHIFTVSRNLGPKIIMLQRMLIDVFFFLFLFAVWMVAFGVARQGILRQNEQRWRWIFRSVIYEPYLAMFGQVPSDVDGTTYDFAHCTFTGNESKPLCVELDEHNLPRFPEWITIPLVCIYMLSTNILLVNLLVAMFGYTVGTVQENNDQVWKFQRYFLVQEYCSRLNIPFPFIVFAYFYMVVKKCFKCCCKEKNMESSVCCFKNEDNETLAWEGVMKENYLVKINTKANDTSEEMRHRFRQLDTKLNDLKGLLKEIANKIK

relative potency to l-menthol (menthol = 1) [1]: 4.0
blurring ([3]; 0.1 mg/mL eye drop, 5, 10 and 15 min): did not cause significant blurring
discomfort ([3]; 0.1 mg/mL, 50 μL eye drop, 10 or 15 min): not at 10 or 15 min
discomfort score (0-5) ([3]; 0.1 mg/mL, 50 μL eye drop, 5 min, n = 5): 1.6
SMILES: CCCCCCCCCP(=O)(C(C)C)C(C)C [C3, 1-diisopropylphosphorylnonane]
Shaking [15 min] ([2]; intravenous 2 mg/kg, anesthetized rats): active
body shakes after oral dosing ([2]; oral 20 mg/kg, anesthetized and unanesthetized state): no body shakes
total number of shaking in the most active rat ([2]; oral 50 mg/kg in 5% ethanol-95% R-1,2-propanediol, observation 120 min): 56 shakes
Shaking [40 min] ([2]; perioral 20 mg/kg, pentobarbital-anesthetized rats): not active
Cooling sensation score (0-5) ([3]; 0.1 mg/mL eye drop, 5 min): 2.6
Cooling sensation score (0-5) ([3]; 0.1 mg/mL eye drop, 10 min): 0.8
Cooling sensation score (0-5) ([3]; 0.1 mg/mL eye drop, 15 min): 0.2
duration of cooling after eye drop ([3]; 0.1 mg/mL eye drop, volume printed as 70 μL): ≤ 10 min
CVS type of symptoms ([4]; 2 mg/mL four times a day, 1 and 2 weeks): significantly improved
basal tear secretion ([4]; 2 mg/mL four times a day, 1 and 2 weeks, versus baseline and vehicle): significantly increased
severity of symptoms by VAS score [4, 5]: significantly improved at week 2 but not at week 1
total OSDI score [4, 5]: significantly improved at week 2 but not at week 1
KEP [4, 6]: no significant changes
TBUT [4, 6]: no significant changes
adverse effect (ocular pain, irritation, discomfort) ([4]; 2 weeks study): No significant adverse effect
